Series [1] has as its system IDO1 gene expression (mRNA level) in THP-1 cells. Briefly: Induction of IDO1 in THP-1 cells, RT-qPCR. It is filed as cell-based, human. The following applies: compound alone, 0.1-10 micromolar. Here is the method:
THP-1 cells were harvested from appropriate number of T75 flasks. Cells were counted in a Bürker chamber, stained with 0.4% Trypan Blue. The appropriate number of cells for each experiment were transferred to a new tube and centrifuged at 1200 rpm, 5 min at room temperature (RT). The supernatant was discarded and fresh RPMI with 5% FBS were added to get a cell concentration of 2×10^5 cells/mL. The compound was added to the five separate wells in 6-well plates such that five different final concentrations were obtained after adding the cells. A control was added to one well in the 6-well plate to which cells were added. 1×10^6 cells per well were seeded out to achieve a total volume of 5 mL per well. The cells were incubated at 37° C. in 5% CO2 for 96 hours. After 96 hours the assay was stopped and the cells were lysed for the isolation of RNA.
Total RNA was extracted from THP-1 cells using the RNA RNeasy Mini extraction kit (Qiagen), according to the manufacturer's instructions. […]
Following RNA extraction and quantification of gene expression by RT-qPRC, as described above, induction of IDO1 gene expression using Samples 1 to 6 was investigated. […]
Following RNA extraction and quantification of gene expression by RT-qPRC, as described above, induction of IDO1 gene expression using Samples 7 to 12 was investigated.
For orientation: Quantitative PCR measures a nucleic acid by following its amplification.

For series [2] the following is noted: cited from earlier work.
For series [3] the following is noted: cited from earlier work. The source holds these as a separate data set.

Read-outs that look alike come from different tables or passages of the source.

Broadly, the half-life is how long it takes for the measured level to halve.

As for `Nc1ncn([C@@H]2O[C@H](CO)[C@@H](O)[C@H]2O)c(=O)n1` [5-azacytidine], the “increase of IDO1 gene expression (maximum)” value in series [1] is “up to 23 fold”.

`O=c1ncccn1[C@@H]1O[C@H](CO)[C@@H](O)[C@H]1O` [Zebularine]: the half-life result is “approximately 44 h” in series [2] (37° C. in PBS at pH 1.0) and roughly 21.2 days in series [2] (37° C. in PBS at pH 7.0). In series [3] (at high concentrations), the toxicity entry was “toxic”. In addition, the cytotoxicity result in series [3] (in vitro and in vivo, at used concentrations) is given as “minimally cytotoxic”.

On to `Nc1ncn([C@H]2C[C@H](O)[C@@H](CO)O2)c(=O)n1` [decitabine, 5-aza-2′-deoxycytidine], for which the “increase of IDO1 gene expression (maximum)” value in series [1] is reported as “up to 101 fold”.

The values above are taken from patent US20200078453A1, “METHODS OF TREATING A MAMMAL SUFFERING FROM OR SUSCEPTIBLE TO AN IMMUNE REACTION TO DRUG TREATMENT” (Idogen AB, priority 2015, published 2020).
